The text below walks through data of patent US20230066474A1, “LYSOSOME-TARGETING ANTIBODY-DRUG CONJUGATE AND USE THEREOF” (Sun Yat-Sen University, priority 2019, published 2023).

As usually defined, the EC50 is the concentration giving half of the maximal effect. Read a low EC50 as an effect from little substance.

Where a SMILES comes first, the peptide text is derived from it. [ ]: non-standard residue; d: D form. Dolaproine = CO[C@@H]([C@@H]1CCCN1)[C@@H](C)C(=O)O; Dil = CC[C@H](C)[C@H](NC)[C@@H](CC(=O)O)OC; NMeV = CN[C@H](C(=O)O)C(C)C

The subject of this experiment is A431 cells. In words: 2D tumor cell model cytotoxicity, Cell Counting Kit-8 (CCK-8). The class given is cell-based, human. The following applies: treated 96 h, CCK-8 viability, mean±SEM (n=3). (In general: Tetrazolium dyes change colour on reduction, which living cells bring about.)

Protocol: 2D tumor cell model was used, where ADCs of varying concentrations were added to a 96-well plate seeded with A431 cells and treated for 96 h. The cell viability was examined using Cell Counting Kit-8 (CCK-8).

As for `CC[C@H](C)[C@@H]([C@@H](CC(=O)N1CCC[C@H]1[C@H](OC)[C@@H](C)C(=O)N[C@@H](Cc1ccccc1)C(=O)O)OC)N(C)C(=O)[C@@H](NC(=O)[C@@H](NC)C(C)C)C(C)C` [MMAF, monomethylaurethatin F] (H-[NMeV]V[Dil][Dolaproine]F-OH), a half-maximal response (EC50) required 955 ± 289 nM.
